Tests used:
[1] = biological target: human orexin 2 receptor (Homo sapiens (Human), UniProt O43614); assay: Human orexin 2 receptor radioligand binding; conditions: human orexin 2 receptor; averages of 2-20 runs; read-out: hOX2 Ki
Method in brief: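 Ki derived from one-site competition IC50 using predetermined Kd of [3H]-EMPA, triplicate points, 2-20 runs averaged. Binding done on homogenized HEK293 cells stably expressing human orexin 2 receptor, DMSO ≤0.1%, with 10 μM almorexant defining nonspecific binding; filtered, washed, scintillation counted.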

[2] = biological target: human orexin 1 receptor (Homo sapiens, UniProt O43613); assay: Human orexin 1 receptor radioligand binding; conditions: human orexin 1 receptor; averages of 2-20 runs; read-out: hOX1 Ki
Method in brief: (§1)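 Ki values derive from one-site competition IC50s corrected with the radioligand's predetermined Kd, triplicates per run, averaged over 2-20 runs. Cell homogenates (rat or human OX1R) compete against [^3H]-thiazolyl-oxadiazolyl-pyrrolidine methanone in PBS; 10 μM almorexant sets nonspecific binding; scintillation counting after washing.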

[3] = biological target: rat orexin 1 receptor (Rattus norvegicus, UniProt P56718); assay: Rat orexin 1 receptor radioligand binding; conditions: rat orexin 1 receptor; averages of 2-20 runs; read-out: rOX1 Ki
Method in brief: as §1

Chain of human orexin 2 receptor (O43614 whole entry): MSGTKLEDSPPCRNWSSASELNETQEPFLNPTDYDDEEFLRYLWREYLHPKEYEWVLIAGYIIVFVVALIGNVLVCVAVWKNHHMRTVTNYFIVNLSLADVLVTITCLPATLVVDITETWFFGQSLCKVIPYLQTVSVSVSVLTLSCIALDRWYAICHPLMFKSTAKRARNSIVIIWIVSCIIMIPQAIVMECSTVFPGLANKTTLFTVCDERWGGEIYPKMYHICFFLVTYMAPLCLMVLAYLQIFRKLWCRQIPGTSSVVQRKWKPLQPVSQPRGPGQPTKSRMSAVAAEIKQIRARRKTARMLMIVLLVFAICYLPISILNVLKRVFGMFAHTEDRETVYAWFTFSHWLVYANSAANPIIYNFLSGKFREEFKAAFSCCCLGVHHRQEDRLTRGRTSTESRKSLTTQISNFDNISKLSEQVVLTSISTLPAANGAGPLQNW

| Ki [1] [nM] | Ki [2] [nM] | Ki [3] [nM] | SMILES |
| --- | --- | --- | --- |
| 962 | 12 | 19 | COCCN(c1ccc(C(F)(F)F)cn1)[C@@H]1C[C@H]2C[C@@H]1N(C(=O)c1cccc(F)c1-c1ncccn1)C2 [Example 163, (3-fluoro-2-(pyrimidin-2-yl)phenyl)((1S,4S,6R)-6-((2-methoxyethyl)(5-(trifluoromethyl)pyridin-2-yl)amino)-2-azabicyclo[2.2.1]heptan-2-yl)methanone] |
| 236 | 4 | 2 | O=C(c1ccccc1-n1nccn1)N1C[C@H]2C[C@@H](Nc3ccc(Br)cn3)[C@@H]1C2 [Example 166, (2-(2H-1,2,3-triazol-2-yl)phenyl)((1S,4S,6R)-6-((5-bromopyridin-2-yl)amino)-2-azabicyclo[2.2.1]heptan-2-yl)methanone] |
| 239 | 6 | 2 | O=C(c1cccc(F)c1-c1ncccn1)N1C[C@H]2C[C@@H](Nc3ccc(Br)cn3)[C@@H]1C2 [Example 167, ((1S,4S,6R)-6-((5-bromopyridin-2-yl)amino)-2-azabicyclo[2.2.1]heptan-2-yl)(3-fluoro-2-(pyrimidin-2-yl)phenyl)methanone] |
| 351 | 4 | 2 | O=C(c1c(F)cccc1-c1ncccn1)N1C[C@H]2C[C@@H](Nc3ccc(Br)cn3)[C@@H]1C2 [Example 168, ((1S,4S,6R)-6-((5-bromopyridin-2-yl)amino)-2-azabicyclo[2.2.1]heptan-2-yl)(2-fluoro-6-(pyrimidin-2-yl)phenyl)methanone] |
| 285 | 4 | 3 | O=C(c1ccccc1-n1nccn1)N1C[C@H]2C[C@@H](Nc3ccc(Cl)cn3)[C@@H]1C2 [Example 169, (2-(2H-1,2,3-triazol-2-yl)phenyl)((1S,4S,6R)-6-((5-chloropyridin-2-yl)amino)-2-azabicyclo[2.2.1]heptan-2-yl)methanone] |
| 321 | 12 | 4 | O=C(c1cccc(F)c1-c1ncccn1)N1C[C@H]2C[C@@H](Nc3ccc(Cl)cn3)[C@@H]1C2 [Example 170, ((1S,4S,6R)-6-((5-chloropyridin-2-yl)amino)-2-azabicyclo[2.2.1]heptan-2-yl)(3-fluoro-2-(pyrimidin-2-yl)phenyl)methanone] |
| 1900 | 25 | 27 | O=C(c1ccc(F)cc1-c1ncccn1)N1C[C@H]2C[C@@H](Nc3ccc(Cl)cn3)[C@@H]1C2 [Example 171, ((1S,4S,6R)-6-((5-chloropyridin-2-yl)amino)-2-azabicyclo[2.2.1]heptan-2-yl)(4-fluoro-2-(pyrimidin-2-yl)phenyl)methanone] |
| 264 | 33 | 55 | O=C(c1ccccc1-n1nccn1)N1C[C@H]2C[C@@H](Nc3ccc(C(F)F)cn3)[C@@H]1C2 [Example 173, (2-(2H-1,2,3-triazol-2-yl)phenyl)((1S,4S,6R)-6-((5-(difluoromethyl)pyridin-2-yl)amino)-2-azabicyclo[2.2.1]heptan-2-yl)methanone] |
| 230 | 15 | 18 | O=C(c1cccc(F)c1-c1ncccn1)N1C[C@H]2C[C@@H](Nc3ccc(C(F)F)cn3)[C@@H]1C2 [Example 174, ((1S,4S,6R)-6-((5-(difluoromethyl)pyridin-2-yl)amino)-2-azabicyclo[2.2.1]heptan-2-yl)(3-fluoro-2-(pyrimidin-2-yl)phenyl)methanone] |
| 844 | 191 | 170 | COc1ccc(N[C@@H]2C[C@H]3C[C@@H]2N(C(=O)c2ccccc2-n2nccn2)C3)nc1 [Example 175, (2-(2H-1,2,3-triazol-2-yl)phenyl)((1S,4S,6R)-6-((5-methoxypyridin-2-yl)amino)-2-azabicyclo[2.2.1]heptan-2-yl)methanone] |
| 1300 | 52 | 56 | COc1ccc(N[C@@H]2C[C@H]3C[C@@H]2N(C(=O)c2cccc(F)c2-c2ncccn2)C3)nc1 [Example 176, (3-fluoro-2-(pyrimidin-2-yl)phenyl)((1S,4S,6R)-6-((5-methoxypyridin-2-yl)amino)-2-azabicyclo[2.2.1]heptan-2-yl)methanone] |
| 200 | 3 | 3 | O=C(c1ccccc1-n1nccn1)N1C[C@H]2C[C@@H](Nc3ncc(C(F)(F)F)cc3F)[C@@H]1C2 [Example 177, (2-(2H-1,2,3-triazol-2-yl)phenyl)((1S,4S,6R)-6-((3-fluoro-5-(trifluoromethyl)pyridin-2-yl)amino)-2-azabicyclo[2.2.1]heptan-2-yl)methanone] |
| 112 | 8 | 6 | Cc1ccc(-n2nccn2)c(C(=O)N2C[C@H]3C[C@@H](Nc4ncc(C(F)(F)F)cc4F)[C@@H]2C3)n1 [Example 178, ((1S,4S,6R)-6-((3-fluoro-5-(trifluoromethyl)pyridin-2-yl)amino)-2-azabicyclo[2.2.1]heptan-2-yl)(6-methyl-3-(2H-1,2,3-triazol-2-yl)pyridin-2-yl)methanone] |
| 217 | 5 | 5 | O=C(c1cccc(F)c1-c1ncccn1)N1C[C@H]2C[C@@H](Nc3ncc(C(F)(F)F)cc3F)[C@@H]1C2 [Example 179, (3-fluoro-2-(pyrimidin-2-yl)phenyl)((1S,4S,6R)-6-((3-fluoro-5-(trifluoromethyl)pyridin-2-yl)amino)-2-azabicyclo[2.2.1]heptan-2-yl)methanone] |
| 380 | 5 | 6 | O=C(c1ccccc1-c1ncc(F)cn1)N1C[C@H]2C[C@@H](Nc3ncc(C(F)(F)F)cc3F)[C@@H]1C2 [Example 180, ((1S,4S,6R)-6-((3-fluoro-5-(trifluoromethyl)pyridin-2-yl)amino)-2-azabicyclo[2.2.1]heptan-2-yl)(2-(5-fluoropyrimidin-2-yl)phenyl)methanone] |
| 163 | 8 | 5 | Cc1ccc(-n2nccn2)c(C(=O)N2C[C@H]3C[C@@H](Nc4nc5ccccc5o4)[C@@H]2C3)n1 [Example 181, ((1S,4S,6R)-6-(benzo[d]oxazol-2-ylamino)-2-azabicyclo[2.2.1]heptan-2-yl)(6-methyl-3-(2H-1,2,3-triazol-2-yl)pyridin-2-yl)methanone] |
| 218 | 4 | 3 | O=C(c1cccc(F)c1-n1nccn1)N1C[C@H]2C[C@@H](Nc3nc4ccccc4o3)[C@@H]1C2 [Example 182, ((1S,4S,6R)-6-(benzo[d]oxazol-2-ylamino)-2-azabicyclo[2.2.1]heptan-2-yl)(3-fluoro-2-(2H-1,2,3-triazol-2-yl)phenyl)methanone] |
| 206 | 7 | 5 | O=C(c1cccc(F)c1-c1ncccn1)N1C[C@H]2C[C@@H](Nc3nc4ccccc4o3)[C@@H]1C2 [Example 183, ((1S,4S,6R)-6-(benzo[d]oxazol-2-ylamino)-2-azabicyclo[2.2.1]heptan-2-yl)(3-fluoro-2-(pyrimidin-2-yl)phenyl)methanone] |
| 337 | 15 | 13 | Cc1ccc(N[C@@H]2C[C@H]3C[C@@H]2N(C(=O)c2cccc(F)c2-c2ncccn2)C3)cc1 [Example 184, (3-fluoro-2-(pyrimidin-2-yl)phenyl)((1S,4S,6R)-6-(p-tolylamino)-2-azabicyclo[2.2.1]heptan-2-yl)methanone] |
| 146 | 33 | 27 | O=C(c1cccc2cc[nH]c12)N1C[C@H]2C[C@@H](Nc3ccc(C(F)(F)F)cn3)[C@@H]1C2 [Example 185, (1H-indol-7-yl)((1S,4S,6R)-6-((5-(trifluoromethyl)pyridin-2-yl)amino)-2-azabicyclo[2.2.1]heptan-2-yl)methanone] |
| 2700 | 151 | 123 | O=C(c1cccc2cn[nH]c12)N1C[C@H]2C[C@@H](Nc3ccc(C(F)(F)F)cn3)[C@@H]1C2 [Example 186, (1H-indazol-7-yl)((1S,4S,6R)-6-((5-(trifluoromethyl)pyridin-2-yl)amino)-2-azabicyclo[2.2.1]heptan-2-yl)methanone] |
| 1600 | 30 | 28 | Cc1cnc(C(=O)N2C[C@H]3C[C@@H](Nc4cnc(C(F)(F)F)cn4)[C@@H]2C3)c(-n2nccn2)c1 [Example 187, (5-methyl-3-(2H-1,2,3-triazol-2-yl)pyridin-2-yl)((1S,4S,6R)-6-((5-(trifluoromethyl)pyrazin-2-yl)amino)-2-azabicyclo[2.2.1]heptan-2-yl)methanone] |
| > 10000 | 210 | 191 | O=C(c1cccnc1-n1nccn1)N1C[C@H]2C[C@@H](Nc3cnc(C(F)(F)F)cn3)[C@@H]1C2 [Example 188, (2-(2H-1,2,3-triazol-2-yl)pyridin-3-yl)((1S,4S,6R)-6-((5-(trifluoromethyl)pyrazin-2-yl)amino)-2-azabicyclo[2.2.1]heptan-2-yl)methanone] |
| 678 | 11 | 14 | O=C(c1ncccc1-c1ncccn1)N1C[C@H]2C[C@@H](Nc3cnc(C(F)(F)F)cn3)[C@@H]1C2 [Example 189, (3-(pyrimidin-2-yl)pyridin-2-yl)((1S,4S,6R)-6-((5-(trifluoromethyl)pyrazin-2-yl)amino)-2-azabicyclo[2.2.1]heptan-2-yl)methanone] |
